According to patent US20210204568A1, “CBD-[…]” (THC PHARM GMBH THE HEALTH CONCEPT, priority 2014, published 2021):

Test system: freely moving rats
Assay: Electropharmacogram (EEG spectral power and physical activity) of freely moving rats after a CBD liquid formulation
Type: in vivo, rat
Description: FIGS. 1 to 3 show electropharmacograms from electroencephalography (EEG) of adult rats (>3 months old), wherein a dosage of 1 mg/kg (body weight) (FIG. 1), 5 mg/kg (body weight (FIGS. 2), and 15 mg/kg (body weight) (FIG. 3) cannabidiol was administered in the form of a liquid formulation.
Under general anesthesia, four depth electrodes were implanted into the prefrontal cortex, the hippocampus, the striatum, and the reticular formation of the rats. From the head of the rats, signals are wirelessly transmitted by radio to a computer. At the same time, the physical activity is measured.
The signals are subjected to a frequency analysis, for example using the fast Fourier transform (FFT), and the frequency content of a signal is determined. In the case of EEG data, the spectrum is divided into multiple regions, which historically are denoted by delta, theta, alpha and beta.
After the division into seven frequency ranges ((1) to (7), see FIGS. 1-3), the changes in the electric output after administration of a liquid formulation according to the invention comprising cannabidiol can be quantified and, taking the signals of the four brain regions into consideration, a specific change pattern, referred to as the “electropharmacogram (supra)”, is obtained (Dimpfel W., Pharmacological classification of herbal extracts by means of comparison to spectral EEG signatures induced by synthetic drugs in the freely moving rat. Journal of Ethnopharmacology 2013, 149, 583-589).
Time-dependent progression of the electric output (“spectral power”) (ordinate) in percent from the 45-minute long pre-drug base line (values) in four brain regions of freely moving rats in the presence of a vehicle (4 ml/kg). The frequency ranges are depicted as bars on the abscissa, specifically delta (1), theta (2), alpha1 (3), alpha2 (4), beta1a (5), beta1b (6) and gamma spectral power (7) from left to right, depending on the named brain region, The statistical significance is represented in stars compared to the control group (vehicle): *=p<0.05; **=p<0.01.

[1] = dosage of 1 mg/kg to 5 mg/kg, adult rats
[2] = high dosages, 5 or 15 mg/kg (body weight)

C=C(C)[C@@H]1CCC(C)=C[C@H]1c1c(O)cc(CCCCC)cc1O [CBD, 2-[1R-3-methyl-6-(1-methylethenyl]--cyclohexen-1-yl]-5-pentyl-1,3-benzenediol]
duration for which the specific increase in gamma spectral power can be observed [1]: at least 4 hours
gamma spectral power in the hippocampus [1]: not at all
gamma spectral power within the striatum (dosage of 1 mg/kg to 5 mg/kg, adult rats, FIG. 1): increase
gamma spectral power (dosage of 15 mg/kg, adult rats, FIG. 3): no specific increase
EEG pattern or electropharmacogram compared with drug classes [2]: corresponds to that of certain antidepressants and analgesic drugs
activity index [2]: significant decrease
effect according to the electropharmacogram (high dosages, 5 or 15 mg/kg (body weight), FIGS. 2 and 3): sedating effect
effect according to the electropharmacogram (lowest dosage, less than 5 mg/kg, preferably 1 mg/kg (body weight)): activating and invigorating effect
